Assay results published in article PMC5394417, “Investigating the molecular mechanism of positive and negative allosteric modulators in the calcium-sensing receptor dimer” (Scientific Reports, 2017).

Target: T1, HA-F688A CaSR mutant (Rattus norvegicus, UniProt P48442, F688A)
T1 construct: mGluR5 signal peptide (N); expressed in transfected cells; host or cells: HEK293T
T1 sequence (P48442 20-1079 F688A): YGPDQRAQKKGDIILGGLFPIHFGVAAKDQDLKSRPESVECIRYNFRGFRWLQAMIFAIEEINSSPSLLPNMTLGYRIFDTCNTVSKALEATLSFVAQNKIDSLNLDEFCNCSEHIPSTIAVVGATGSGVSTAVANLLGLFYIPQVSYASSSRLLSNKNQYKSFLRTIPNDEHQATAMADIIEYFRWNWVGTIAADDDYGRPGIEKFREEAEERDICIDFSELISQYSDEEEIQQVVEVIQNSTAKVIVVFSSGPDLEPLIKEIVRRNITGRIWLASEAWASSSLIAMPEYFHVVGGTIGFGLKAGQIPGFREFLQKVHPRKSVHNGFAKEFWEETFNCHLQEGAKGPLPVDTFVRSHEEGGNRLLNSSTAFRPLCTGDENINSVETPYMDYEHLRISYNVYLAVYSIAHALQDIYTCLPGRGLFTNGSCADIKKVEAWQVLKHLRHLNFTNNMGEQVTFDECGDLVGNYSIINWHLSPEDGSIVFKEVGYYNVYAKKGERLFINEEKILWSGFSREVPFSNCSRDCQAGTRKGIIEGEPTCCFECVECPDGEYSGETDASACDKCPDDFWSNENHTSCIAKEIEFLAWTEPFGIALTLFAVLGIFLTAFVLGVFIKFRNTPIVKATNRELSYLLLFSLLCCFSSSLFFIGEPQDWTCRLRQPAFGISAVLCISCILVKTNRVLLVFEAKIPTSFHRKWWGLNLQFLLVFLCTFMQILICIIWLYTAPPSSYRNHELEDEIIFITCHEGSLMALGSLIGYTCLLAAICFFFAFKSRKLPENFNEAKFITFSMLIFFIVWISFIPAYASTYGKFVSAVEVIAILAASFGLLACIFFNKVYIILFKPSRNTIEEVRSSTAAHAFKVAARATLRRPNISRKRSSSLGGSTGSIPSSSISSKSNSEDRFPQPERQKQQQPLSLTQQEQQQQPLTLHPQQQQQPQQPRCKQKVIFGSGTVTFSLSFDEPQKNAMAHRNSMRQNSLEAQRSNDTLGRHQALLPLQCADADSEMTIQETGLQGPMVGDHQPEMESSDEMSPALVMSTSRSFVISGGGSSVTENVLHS
Test: IP-One assay, HEK293T transiently transfected
Type: cell-based
Experimental: Human embryonic kidney (HEK) 293T cells were cultured in DMEM supplemented with 10% dFBS and 1% P/S at 37 °C and 5% CO2. 48 h prior to assay, transient transfection was performed using Lipofectamine 2000 as the transfection reagent. White opaque 96-well culture plates (PerkinElmer, Waltham, MA, USA) were used for the ELISA and the TR-FRET dimerization assay, while clear tissue culture treated 96-well plates (Corning, Corning, NY, USA) were used for the IP-One assay. Both plate types were coated with poly-D-lysine before addition of cells and transfection mix. 0.25 μl/well of Lipofectamine 2000 were diluted in 25 μl/well of Opti-MEM and incubated at room temperature (RT) for 5 min. 0.03 μg/well of DNA was diluted in 25 μl/well of Opti-MEM, and subsequently mixed with the Lipofectamine 2000 dilution and incubated 20 min at RT before addition to the plates. Cell suspensions of 170.000 HEK293T cells/mL were prepared in complete growth medium and 100 μl/well (17.000 cells/well) was added to the plates, which were incubated for 48 h at 37 °C and 5% CO2 before performing assays.
Functional activity was measured using the IP-One assay, which is an IP1 accumulation assay. For agonist testing, ligands were prepared in final concentrations in ligand buffer (HBSS, 20 mM HEPES, pH 7.4 supplemented with 20 mM LiCl). Cells were washed once with 100 μl/well of assay buffer (HBSS, 20 mM HEPES, pH 7.4) and 50 μl/well of agonist solution was added after which plates were incubated at 37 °C for 30 min. Subsequently, ligand solutions were removed and cells were washed with 100 μl/well of assay buffer. Cell lysis was performed by addition of 30 μl/well of IP-One Conjugate & Lysis Buffer (Cisbio Bioassays, Codolet, France) and plates were incubated at RT for 30 min. Afterwards, 30 μl/well of assay buffer was added to dilute the cell lysate. 10 μl/well of cell lysate was transferred from the 96-well plate to a 384-well Optiplate and 10 μl/well of detection solution (Assay buffer + 2.5% of anti-IP1 antibody cryptate Terbium conjugate + 2.5% IP1-d2 conjugate (Cisbio Bioassays, Codolet, France)) was also added. The 384-well plate was incubated for 1 h at RT in dark before being measured on an EnVision plate reader (PerkinElmer, Waltham, MA, USA). Upon excitation at 340 nm, emission at 615 nm and 665 nm was measured, and the FRET ratio (665 nm/615 nm) was converted to IP1 concentrations by interpolating values from an IP1 standard curve generated from a provided IP1 calibrator (Cisbio Bioassays, Codolet, France). When testing allosteric modulators, cells were pre-incubated for 30 min at 37 °C with 50 μl/well of ligand buffer supplemented with allosteric modulator and a final concentration of 1% DMSO. Afterwards, the buffer solution was removed and 50 μl/well of agonist solution in ligand buffer supplemented with allosteric modulator and a final concentration of 1% DMSO was added. Plates were incubated for 30 min at 37 °C followed by one wash in 100 μl/well of assay buffer. Cell lysis and detection was performed as described above.

- EC50 (Ca^2+ alone): 6.11 mM
- pEC50 ± S.E.M. (Ca^2+ alone): 2.21 ± 0.01
- Max ± S.E.M. (Ca^2+ alone, normalized to maximum response of WT CaSR): 86 ± 3.1%
- EC50 (Ca^2+ with 1 μM NPS R-568): 2.86 mM
- pEC50 ± S.E.M. (Ca^2+ with 1 μM NPS R-568): 2.54 ± 0.02
- Max ± S.E.M. (Ca^2+ with 1 μM NPS R-568, normalized to maximum response with Ca^2+ alone for the construct): 110 ± 9%
- EC50 (Ca^2+ with 5 μM NPS 2143): 8.31 mM
- pEC50 ± S.E.M. (Ca^2+ with 5 μM NPS 2143): 2.08 ± 0.01
- Max ± S.E.M. (Ca^2+ with 5 μM NPS 2143, normalized to maximum response with Ca^2+ alone for the construct): 79 ± 6.9%
Structure (SMILES): [Ca+2] [Ca^2+]
